From publication PMC4444405 (Chemical biology & drug design, 2014)
Like-named read-outs stand apart in the source and are kept apart here. Square brackets hold non-standard residues; d marks the D form. Ends that are not written are not given here. pY = N[C@@H](Cc1ccc(OP(=O)(O)O)cc1)C(=O)O

What was measured:
Src-YEEI [1] = target: T1, Src-YEEI (Homo sapiens, UniProt P12931); format: biochemical
Src-YEEI [2] = target: T1, Src-YEEI; format: biochemical; remark: listed apart in the source
Src-YEEI [3] = target: T1, Src-YEEI; format: biochemical; conditions: read-out: IC50, Src-YEEI alone, ADP Quest
[4] = test system: Src-YEEI:pFAK peptide complex; format: biochemical, human; conditions: ratio of the IC50 values for Src-YEEI:pFAK peptide complex and Src-YEEI alone, ADP Quest
[5] = target: T2, Src-YEEI:pFAK peptide complex (Homo sapiens, UniProt P12931); format: biochemical; conditions: read-out: IC50, Src-YEEI + pFAK, ADP Quest
Src-YEEI [6] = target: T1, Src-YEEI; format: biochemical; remark: listed apart in the source
[7] = test system: Src-YEEI:pFAK peptide complex; test: Z'Lyte end-point in vitro kinase assay, Src-YEEI in presence of pFAK peptide; format: biochemical, human; conditions: ratio of the IC50 values for Src-YEEI:pFAK peptide complex and Src-YEEI alone, Z'Lyte
[8] = target: T2, Src-YEEI:pFAK peptide complex; test: as above; format: biochemical; conditions: compound 10 μM; Z'Lyte library screen

| Compound | percent of maximal activation of Src-YEEI (Src-YEEI [1]) | rate of ADP production by Src-YEEI in presence of peptide (Src-YEEI [2]) | IC50 (Src-YEEI [3]) | Selectivity ratio, ADP Quest [4] | IC50 [5] | percent inhibition of Src-YEEI alone in the screening assay (Src-YEEI [6]; 10 µM) | IC50 (Src-YEEI [6]; read-out: IC50, Src-YEEI alone, Z'Lyte) | Selectivity ratio, Z'Lyte [7] | percent inhibition of Src-YEEI:pFAK peptide complex in the screening assay [8] |
| --- | --- | --- | --- | --- | --- | --- | --- | --- | --- |
| AAAARALPSIPKLAN NEKQGVRSHTVSVSETDDY^PAEIID (AAAARALPSIPKLANNEKQGVRSHTVSVSETDD[pY]AEIID) [pFAK] | 40% | 1.0 pmol ADP produced/min | – | – | – | – | – | – | – |
| COc1ccc(N(C(=O)Oc2c(C)cccc2C)c2ccnc(Nc3ccc(N4CCN(C)CC4)cc3)n2)c(OC)c1 [WH-4-023] | – | – | 19 nM | 0.76 | 25 nM | more than 70% | 1280 nM | 0.94 | more than 70% |
